Here are results for 1 molecule from US7265155B2 (NBS Pharmaceuticals, Inc., priority 1996, dated 2007).

Entries after “also recorded” stand apart in the source; their conditions may differ.

One data set deals with chronic spinalized rat. Kind of data set: Spasticity scores elicited by a metal probe in chronic spinally transected rats. To be noted: 300 mg/kg i.p. It counts as in vivo. From the text:
In these studies, male albino Holtzman-derived rats (Harlan Sprague-Dawley Laboratories) weighing 270-530 grams were used as subjects. The animals were housed independently and had continuous access to food and water throughout the experiments.
All procedures were reviewed and approved by the Institutional Animal Care and Use Committee. Animals were anesthetized using a mixture of isoflurane and oxygen at a flow rate of 4 liters/minute.
The rats were then placed in a stereotaxic frame and anesthesia was maintained. An incision was made so that the paraspinal muscles could be retracted and a laminectomy performed between T6-T9. A one- to two-millimeter portion of the spinal cord was removed by evacuation and replaced with Gel foam to reduce bleeding, after which the incision was closed in layers.
Following the transection, rats were placed in a room in which the ambient temperature was raised to about 80° F. with a space heater to maintain body temperature. On the following morning post-surgery, the hindquarters of the spinalized rats were bathed and their urine expressed manually by applying pressure to their bladders. Experiments were conducted between 21 and 28 days after surgery. For the first two weeks, these rats were given 0.25 ml of the antibiotic Sulfatrim Pediatric Suspension orally to prevent bladder infection.
Within approximately two weeks, all animals regained bladder control and were no longer given antibiotic treatment. Advokat, Brain Res. 684: 8 (1995). […]
Initial assessment of spasticity was performed by the subjective scoring method of rating the resulting spasticity response elicited with an innocuous stimulus, i.e., a metal probe, that was pressed against the lower abdomen at four specific sites. The spastic reaction was evaluated for each of the four trials using a scale ranging from zero (no spastic response in all four trials) to four (a maximum, tonic-clonic reaction elicited in all four trials). […] These raw or normalized scores were analyzed with a one-way repeated measures ANOVA.

Another data set relates to amygdala-kindled rat. Kind of data set: Antiepileptogenic effect during kindling in the amygdala-kindled rat. The class given is in vivo. To be noted: daily 500 mg/kg p.o. As to the method: In these studies, groups of adult, male Sprague-Dawley rats weighing at least 230 gr were implanted with a teflon-coated bipolar electrode sterotaxically placed in the anterior basolateral nucleus of the amygdala under ketarine and xylazine anesthesia. The electrode was implanted at the following coordinates with Bregma as zero: AP-2.2 mm, ML-4.7 mm, DV-8.7 mm. Chronic treatment with vehicle (0.5% carboxymethylcellulose, p.o.) or isovaleramide (500 mg/kg, p.o., […] of body weight) was initiated after a seven-day postoperative recovery period. […] After 11 treatment days, all animals were permitted a 7-day drug- and stimulus-free period. […] Seizure score and afterdischarge duration were recorded after each stimulation. Seizure score was classified according to Racine scale (1972): stage 0, no abnormal behavior; stage 1, mouth or facial movements; stage 2, mouth or facial movements and head nodding; stage 3, stage 2 and forelimb clonus; stage 4, stage 3 and rearing; stage 5, stage 4 and falling. A score of 2-3 represents a focal seizure while a score of 4-5 represents secondarily generalized seizures. Afterdischarge duration was the total duration of the amygdala electroencephalogram spikes with an amplitude of at least twice the amplitude of the prestimulus recording and a frequency greater than 1/sec. […]

Regarding `CC(C)CC(N)=O` [Isovaleramide, isovaleramide], the “overt behavioral toxicity or motor impairment” value with chronic spinalized rat is “No overt behavioral toxicity or motor impairment was observed”. The “reduction of spasticity scores” value in the data set with chronic spinalized rat (15, 30, 60 and 120 minutes post-administration) is 45-65%. For the same molecule, the “spasticity scores by the next day” value in the data set on chronic spinalized rat (1440 minutes (24 hours)) was “essentially returned to baseline values”. For the same molecule, the “seizure development over time” value with amygdala-kindled rat is “eventually developed full stage 5 seizures”. In addition, the “increases in seizure score and afterdischarge duration during electrical kindling” value in the data set on amygdala-kindled rat (30-minute pretreatment) is “delayed the increases in both seizure score and afterdischarge duration; also recorded: elicited a delay in the rate of increase in both seizure score and afterdischarge duration”.
